Assay results from article PMC7372189 (Frontiers in Pharmacology, 2020).
Like-named read-outs stand apart in the source and are kept apart here.

Assays:
TRPV1 channel = molecular target: T1, TRPV1 channel (Rattus norvegicus, UniProt O35433); test: Two-electrode voltage clamp (TEVC) in Xenopus oocytes expressing TRPV1 channels; type: cell-based; conditions: for maximal effect (Ix/Icapsaicin): Imax relative to current in saturating capsaicin
T1 construct: expressed in transfected cells; host or cells: Xenopus laevis oocytes injected with in vitro transcribed TRPV1 cRNA
T1 sequence (O35433 whole entry): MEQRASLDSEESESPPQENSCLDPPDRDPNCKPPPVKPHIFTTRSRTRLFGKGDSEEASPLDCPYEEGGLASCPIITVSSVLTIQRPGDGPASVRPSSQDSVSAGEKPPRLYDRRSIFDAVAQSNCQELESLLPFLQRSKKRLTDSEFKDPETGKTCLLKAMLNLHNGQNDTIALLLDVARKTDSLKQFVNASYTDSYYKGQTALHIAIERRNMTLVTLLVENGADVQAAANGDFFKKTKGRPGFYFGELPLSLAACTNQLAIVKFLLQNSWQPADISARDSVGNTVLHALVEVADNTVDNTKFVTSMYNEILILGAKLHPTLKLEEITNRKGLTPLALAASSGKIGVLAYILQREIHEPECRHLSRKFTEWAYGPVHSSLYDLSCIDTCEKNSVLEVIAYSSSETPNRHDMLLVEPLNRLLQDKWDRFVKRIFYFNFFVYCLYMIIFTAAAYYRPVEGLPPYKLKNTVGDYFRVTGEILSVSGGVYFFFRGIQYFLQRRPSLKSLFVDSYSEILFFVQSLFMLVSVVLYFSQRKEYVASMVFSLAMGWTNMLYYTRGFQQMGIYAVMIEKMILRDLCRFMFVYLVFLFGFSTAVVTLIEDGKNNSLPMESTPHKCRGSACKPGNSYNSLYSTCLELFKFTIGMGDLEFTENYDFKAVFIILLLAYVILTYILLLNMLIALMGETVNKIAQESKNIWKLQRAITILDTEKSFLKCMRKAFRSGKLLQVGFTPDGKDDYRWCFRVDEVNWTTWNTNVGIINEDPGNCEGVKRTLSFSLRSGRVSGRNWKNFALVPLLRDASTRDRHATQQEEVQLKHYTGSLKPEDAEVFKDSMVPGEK

[1] = test system: tactile allodynia induced by intra-plantar carrageenan; test: Carrageenan model of inflammatory pain, tactile allodynia measured with von Frey filaments after topical application; type: in vivo, Sprague–Dawley rats; conditions: for Effect duration / Time of maximal analgesia / Time to first effect (first significant analgesic effect): after topical application; for Concentration at maximal analgesia / ED50 of maximal effect / Maximal percentage of analgesia attained: topical in cream; for ED50 of maximal effect: extrapolated from linear fit of %MPE at time of maximal analgesia; for Maximal percentage of analgesia attained: relative to cream (0%) and saline (100%) controls
Experimental: Male Sprague–Dawley rats (approximately 200–300 g body weight) were used. Food and water were supplied ad libitum and the animals were kept in a 12 h light–dark cycle in their home cages throughout the study. All procedures were in accordance with the U.S. National Institutes of Health guidelines and were approved by the bioethical Committee of the Universidad Andres Bello, Acta 11/2016.
2% λ-Carrageenan (Santa Cruz Biotechnology) was administered subcutaneously to induce tactile allodynia according to previous studies ([Yoshimura and Yonehara, 2001]; [Fehrenbacher et al., 2012]). Capsaicin was obtained from Sigma. Compounds 1, 2, and 3 were obtained from the National Cancer Institute. […] Novo base moisturizing cream (Charles Lasserre) was used as vehicle for all tested compounds including capsaicin and was used alone as vehicle control. The different concentrations used can be found in Table 3.
Rats were randomly assigned into the following groups for all compounds: EC50, 10-fold EC50, 100-fold EC50, 1,000-fold EC50, a control group treated with cream only and a control group for 2% λ-Carrageenan in which saline was injected instead of λ-Carrageenan.
The λ-Carrageenan model for inflammatory pain was used to induce mechanical allodynia lasting for less than 24 h, as reported elsewhere ([Yoshimura and Yonehara, 2001]; [Fehrenbacher et al., 2012]). In short, animals were injected with 100 µl of 2% λ-Carrageenan diluted in saline, or saline alone as vehicle control, into the left hind paw. One hour later, capsaicin or one of the three compounds dissolved in cream was administered on the plantar surface until fully absorbed using a cotton swab. Then the rat was placed in the test chamber and acclimated for 5 min.
The day before the experiments, tactile thresholds were measured in all animals to attain a baseline and to ensure normal sensitivity to tactile stimuli. On the day of the experiment, the cream that contained the compounds was applied only once, 5 min before the evaluation began, and the effects of each compound was measured over time, once per hour, for eight consecutive hours. Von Frey filaments were used to measure plantar mechanical sensitivity and inflammatory allodynia. Briefly, the rats were placed into the arena with a mesh floor and after the 5-min habituation, were tested using von Frey filaments. The following von Frey filaments were applied against the plantar surface: 52.2 g (512 mN), 26.1 g (256 mN), 13.0 g (128 mN), 6.52 g (64 mN), 3.26 g (32 mN). To measure tactile response, the up-down method was used ([Dixon, 1980]), with slight modifications: the starting filament (13.0 g) was applied perpendicularly to the plantar surface of the hind paw until it buckled for 3 s or until the rat withdrew its foot. If the rat responded to the filament, the procedure was repeated with the smaller filament (6.52 g) and then repeated sequentially until the smallest filament that elicits a response was identified. […] To confirm that the identified filament was the smallest that could elicit a response, the filament was changed to the next smaller filament with no response and then increased again to the filament that produced a response. The responses (X) and lack of responses (0) were recorded to obtain the tabular values from [Dixon (1980)], corresponding to:
Data from von Frey filaments was obtained as a dose–response curve for each compound over the course of 8 h. All groups were tested for normality and a two-way ANOVA with Bonferroni post hoc test was used to analyze differences. Differences were considered significant when p < 0.05 and averages are shown ± standard error of the mean (SE).
The paw withdrawal threshold (PWT) for each time point was calculated by using the following equation proposed by [Dixon, 1980]: […]

[2] = higher concentrations than 10xEC50

Row | SMILES | maximal effect (Ix/Icapsaicin) (TRPV1 channel) | EC50 (TRPV1 channel; read-out: EC50) | Analgesic effect relative to vehicle, significance of tactile thresholds (von Frey) ([1]; Time 1 h, x1000 EC50) | Analgesic effect relative to vehicle, significance of tactile thresholds (von Frey) ([1]; Time 2 h, x100 EC50) | Analgesic effect relative to vehicle, significance of tactile thresholds (von Frey) ([1]; Time 2 h, x1000 EC50) | Analgesic effect relative to vehicle, significance of tactile thresholds (von Frey) ([1]; Time 3 h, x1000 EC50) | Analgesic effect relative to vehicle, significance of tactile thresholds (von Frey) ([1]; Time 4 h, x100 EC50) | Analgesic effect relative to vehicle, significance of tactile thresholds (von Frey) ([1]; Time 4 h, x1000 EC50) | Analgesic effect relative to vehicle, significance of tactile thresholds (von Frey) ([1]; Time 7 h, x100 EC50) | Analgesic effect relative to vehicle, significance of tactile thresholds (von Frey) ([1]; Time 7 h, x1000 EC50) | Analgesic effect relative to vehicle, significance of tactile thresholds (von Frey) ([1]; Time 8 h, x1000 EC50) | Effect duration [1] | Time of maximal analgesia [1] | Concentration at maximal analgesia [1] | ED50 of maximal effect [1] | Maximal percentage of analgesia attained [1] | Analgesic effect relative to vehicle, significance of tactile thresholds (von Frey) ([1]; Time 8 h, x100 EC50) | Analgesic effect relative to vehicle, significance of tactile thresholds (von Frey) ([1]; Time 9 h, x100 EC50) | Analgesic effect relative to vehicle, significance of tactile thresholds (von Frey) ([1]; Time 9 h, x1000 EC50) | Time to first effect (first significant analgesic effect) [1] | also measured
1 | Cc1cccc(NC(=O)C2CCCN(C(=O)OCc3ccccc3)C2)c1 (stereo not drawn) [Compound 2] | 0.73 | 53 ± 4.3 nM | *** (***p < 0.001) | * (*p < 0.05) | ** (**p < 0.01) | *** (***p < 0.001) | * (*p < 0.05) | * (*p < 0.05) | ** (**p < 0.01) | ** (**p < 0.01) | ** (**p < 0.01) | 3 h | 3 h | 53 µM | 6800 nM | 100% |  |  |  |  | Time of first significant analgesic effect compared to vehicle ([1]; 100xEC50): 2 h; Duration of significant analgesic effect ([1]; higher concentrations than 100xEC50): 3 h
2 | COc1cc(C2C(C(=O)OC3CCCC3)=C(C)NC3=C2C(=O)CC(c2ccc(OC)c(OC)c2)C3)ccc1O (stereo not drawn) [Compound 1] | 0.8 | 53 ± 6 nM | ** (**p < 0.01) | ** (**p < 0.01) | *** (***p < 0.001) | **** (****p < 0.0001) | * (*p < 0.05) | *** (***p < 0.001) | *** (***p < 0.001) | *** (***p < 0.001) | *** (***p < 0.001) | 8 h | 3 h | 53 µM | 37700 nM | 83% | ** (**p < 0.01) | ** (**p < 0.01) | ** (**p < 0.01) |  | Duration of significant analgesic effect ([1]; 10xEC50): 8 h; Time of first significant analgesic effect compared to vehicle ([1]; 10xEC50): 1 h; Analgesic effect relative to vehicle, significance of tactile thresholds (von Frey) ([1]; Time 1 h, x10 EC50): * (*p < 0.05); Analgesic effect relative to vehicle, significance of tactile thresholds (von Frey) ([1]; Time 1 h, x100 EC50): * (*p < 0.05); Analgesic effect relative to vehicle, significance of tactile thresholds (von Frey) ([1]; Time 2 h, x10 EC50): **** (****p < 0.0001); Analgesic effect relative to vehicle, significance of tactile thresholds (von Frey) ([1]; Time 3 h, x10 EC50): **** (****p < 0.0001); Analgesic effect relative to vehicle, significance of tactile thresholds (von Frey) ([1]; Time 3 h, x100 EC50): ** (**p < 0.01); Analgesic effect relative to vehicle, significance of tactile thresholds (von Frey) ([1]; Time 4 h, x10 EC50): *** (***p < 0.001); Analgesic effect relative to vehicle, significance of tactile thresholds (von Frey) ([1]; Time 5 h, x10 EC50): **** (****p < 0.0001); Analgesic effect relative to vehicle, significance of tactile thresholds (von Frey) ([1]; Time 5 h, x100 EC50): ** (**p < 0.01); Analgesic effect relative to vehicle, significance of tactile thresholds (von Frey) ([1]; Time 5 h, x1000 EC50): *** (***p < 0.001); Analgesic effect relative to vehicle, significance of tactile thresholds (von Frey) ([1]; Time 6 h, x10 EC50): ** (**p < 0.01); Analgesic effect relative to vehicle, significance of tactile thresholds (von Frey) ([1]; Time 6 h, x100 EC50): ** (**p < 0.01); Analgesic effect relative to vehicle, significance of tactile thresholds (von Frey) ([1]; Time 6 h, x1000 EC50): *** (***p < 0.001); Analgesic effect relative to vehicle, significance of tactile thresholds (von Frey) ([1]; Time 7 h, x10 EC50): ** (**p < 0.01); Analgesic effect relative to vehicle, significance of tactile thresholds (von Frey) ([1]; Time 8 h, x10 EC50): * (*p < 0.05); Duration of significant analgesic effect [1, 2]: ≥ 9 h; Time of first significant analgesic effect compared to vehicle [1, 2]: 1 h
3 | COc1cc(CNC(=O)CCCC/C=C/C(C)C)ccc1O [Capsaicin, reference compound] | 1 |  |  |  |  |  |  |  |  |  |  | 2 h | 4 h | 44 µM | 86900 nM | 86% |  |  |  | Hour 3 h | Time to first effect (first significant analgesic effect) ([1]; listed as capsaicin): 3 h
4 | C=C(C)[C@]12C[C@@H](C)[C@@]34O[C@](Cc5ccccc5)(O[C@@H]1[C@@H]3C=C(COC(=O)Cc1ccc(O)c(OC)c1)C[C@]1(O)C(=O)C(C)=C[C@@H]41)O2 [Resiniferatoxin, reference compound] |  |  |  |  |  |  |  |  |  |  |  |  |  |  |  |  |  |  |  |  | EC50 (TRPV1 channel): 0.7 nM
5 | COc1ccc(C(=O)NNC(=O)CSc2nnc(-c3ccc(C)cc3)n2C)cc1 [Compound 3] | 0.89 | 92 ± 10 nM |  |  |  |  |  |  |  | * (*p < 0.05) | * (*p < 0.05) | 2 h | 7 h | 92 µM | 139300 nM | 75% | * (*p < 0.05) | * (*p < 0.05) | * (*p < 0.05) | Hour 7 h | Time to first effect (first significant analgesic effect) ([1]; listed as compound 3): 7 h
